# Measured values taken from US20100286219A1, “1, 3-Dihydroimidazoles for Treating Cardiovascular Disorders” (BIAL - PORTELA & CA S.A., priority 2007, published 2010).
# T1: DβH (Mus musculus, UniProt Q64237)
# T1 construct: noradrenaline levels in the mouse left ventricle and brain parietal cortex 9 h after oral administration; from tissue; host or cells: mouse left ventricle and brain parietal cortex (in vivo)
# T1 sequence (Q64237 1-622): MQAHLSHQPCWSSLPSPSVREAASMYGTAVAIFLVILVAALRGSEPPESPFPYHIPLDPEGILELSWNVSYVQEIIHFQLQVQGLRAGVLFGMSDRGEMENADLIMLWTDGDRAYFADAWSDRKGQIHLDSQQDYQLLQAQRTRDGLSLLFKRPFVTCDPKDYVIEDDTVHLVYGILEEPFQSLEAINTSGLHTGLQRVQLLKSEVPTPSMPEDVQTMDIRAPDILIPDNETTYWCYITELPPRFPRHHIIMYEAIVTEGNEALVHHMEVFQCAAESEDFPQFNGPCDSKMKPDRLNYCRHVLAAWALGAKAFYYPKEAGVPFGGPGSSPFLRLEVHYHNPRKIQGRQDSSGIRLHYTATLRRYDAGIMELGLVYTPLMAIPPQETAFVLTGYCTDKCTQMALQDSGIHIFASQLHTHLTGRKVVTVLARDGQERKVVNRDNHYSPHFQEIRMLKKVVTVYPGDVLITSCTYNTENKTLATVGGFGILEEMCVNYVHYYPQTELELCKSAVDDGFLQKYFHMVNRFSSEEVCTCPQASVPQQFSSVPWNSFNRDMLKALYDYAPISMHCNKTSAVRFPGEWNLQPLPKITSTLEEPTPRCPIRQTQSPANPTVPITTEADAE
# T2: human DβH (Homo sapiens, UniProt P09172)
# T2 construct: endogenous in cells; host or cells: SK-N-SH cells
# T2 sequence (P09172 1-617): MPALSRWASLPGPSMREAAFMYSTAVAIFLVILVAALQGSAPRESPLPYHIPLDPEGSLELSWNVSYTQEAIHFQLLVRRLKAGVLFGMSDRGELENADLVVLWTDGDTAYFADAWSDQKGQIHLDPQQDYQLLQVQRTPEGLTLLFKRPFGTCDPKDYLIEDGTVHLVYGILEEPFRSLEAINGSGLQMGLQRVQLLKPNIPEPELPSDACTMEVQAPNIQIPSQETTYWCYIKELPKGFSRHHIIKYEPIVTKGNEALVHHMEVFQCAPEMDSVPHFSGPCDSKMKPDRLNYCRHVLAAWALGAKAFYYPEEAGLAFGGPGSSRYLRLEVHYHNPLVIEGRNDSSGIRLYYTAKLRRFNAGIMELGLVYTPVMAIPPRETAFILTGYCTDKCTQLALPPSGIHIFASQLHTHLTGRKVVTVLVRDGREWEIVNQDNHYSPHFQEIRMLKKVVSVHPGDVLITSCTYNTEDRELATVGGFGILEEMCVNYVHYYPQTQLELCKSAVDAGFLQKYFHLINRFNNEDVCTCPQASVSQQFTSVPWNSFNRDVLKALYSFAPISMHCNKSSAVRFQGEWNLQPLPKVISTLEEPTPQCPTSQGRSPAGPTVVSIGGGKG
# T3: DβH (Rattus norvegicus, UniProt Q05754)
# T3 construct: noradrenaline levels in the rat heart (left atrium and left ventricle) and brain (frontal and parietal cortex); from tissue; host or cells: rat heart (left atrium, left ventricle) and brain (frontal and parietal cortex), in vivo
# T3 sequence (Q05754 1-620): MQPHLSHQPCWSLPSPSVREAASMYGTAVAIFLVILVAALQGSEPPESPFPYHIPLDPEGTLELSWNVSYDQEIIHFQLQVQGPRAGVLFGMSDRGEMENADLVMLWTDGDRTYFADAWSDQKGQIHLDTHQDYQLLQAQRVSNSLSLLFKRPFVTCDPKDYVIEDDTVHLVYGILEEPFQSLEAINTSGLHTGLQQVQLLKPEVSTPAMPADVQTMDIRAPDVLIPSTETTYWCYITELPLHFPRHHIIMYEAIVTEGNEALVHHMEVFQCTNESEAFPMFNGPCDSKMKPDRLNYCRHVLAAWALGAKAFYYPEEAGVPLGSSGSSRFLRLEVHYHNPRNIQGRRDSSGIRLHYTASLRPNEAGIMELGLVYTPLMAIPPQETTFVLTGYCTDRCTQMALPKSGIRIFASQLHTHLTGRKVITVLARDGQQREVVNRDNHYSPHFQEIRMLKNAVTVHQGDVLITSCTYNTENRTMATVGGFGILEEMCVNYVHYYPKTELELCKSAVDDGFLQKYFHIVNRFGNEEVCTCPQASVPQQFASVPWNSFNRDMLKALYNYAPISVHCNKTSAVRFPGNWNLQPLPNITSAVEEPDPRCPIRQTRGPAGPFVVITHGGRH
# B1: human DβH (Homo sapiens) (protein)
# chain: T2 sequence (P09172 1-617)
# Legend:
# DβH [1] = target: T1, DβH; assay: Noradrenaline tissue levels in mouse heart and brain after oral administration; assay type: in vivo
# Description: FIG. 1 is a graph showing the time-dependent decrease of noradrenaline levels in the left ventricle of mice treated orally with 100 mg/kg of 4 or nepicastat 1. Symbols are means of 5 determinations per group; vertical lines indicate S.E.M.
# FIG. 2 is two graphs showing noradrenaline levels in the mouse left ventricle and brain parietal cortex 9 h after oral administration of 4 or nepicastat 1. Symbols are means of 5 determinations per group; vertical lines indicate S.E.M.
# Time of maximum effect (Tmax) for noradrenaline tissue reduction by both 4 and 1 appears to be at 9 h post-dose (FIG. 1). Thereafter, noradrenaline tissue levels recover, reaching 50% recovery of initial tissue levels at 24 h.
# For both 4 and 1, the maximal inhibitory effect was attained at a dose of 100 mg/kg.
# human DβH = target: T2, human DβH; assay: DβH activity in SK-N-SH cells (β-hydroxylation of dopamine to noradrenaline); assay type: cell-based
# DβH [2] = target: T3, DβH; assay: Noradrenaline tissue levels in rat heart and brain after oral administration; assay type: in vivo
# Description: FIG. 3 is four graphs showing noradrenaline levels in the rat heart (left atrium and left ventricle) and brain (frontal and parietal cortex) 9 h after the oral administration of 4 or nepicastat 1. Columns are means of 5 determinations per group; vertical lines indicated S.E.M.
# [3] = substrate: NCCc1ccc(O)c(O)c1; assay: cells, lysate or membranes; conditions: other: SK-N-SH cells, increasing concentrations of dopamine
# [4] = mouse, 9 h after oral administration
Molecule,"Time of maximum effect (Tmax) for noradrenaline tissue reduction (DβH [1]; mouse heart (left ventricle), 100 mg/kg oral)","recovery of initial noradrenaline tissue levels (DβH [1]; mouse heart, 100 mg/kg, at 24 h)","duration of action (in words) (DβH [1]; mouse heart, time course at 100 mg/kg)","dose at which maximal inhibitory effect was attained (DβH [1]; mouse left ventricle noradrenaline, 9 h after administration)",effect on noradrenaline levels in left ventricle (DβH [1]; [4]),effect on noradrenaline tissue levels in brain parietal cortex (DβH [1]; [4]),"DβH activity, Mean ± SEM, % of control (human DβH; compound 5 μM)",IC50 against human DβH activity (in words) (human DβH; concentration-dependent decrease in β-hydroxylation of dopamine),dose dependence of effect upon noradrenaline (DβH [2]; rat (data not shown)),time of maximum effect upon noradrenaline (DβH [2]; rat (data not shown)),"effect on noradrenaline tissue levels in brain parietal cortex and brain frontal cortex (DβH [2]; rat, 9 h after oral administration)",Km [3],Vmax [3]
"NCc1c[nH]c(=S)n1[C@H]1CCc2c(F)cc(F)cc2C1 [Nepicastat 1, nepicastat, reference compound]",9 h,50%,long acting,100 mg/kg,reduced noradrenaline levels in a dose-dependent manner,produced a dose-dependent decrease,0.0 ± 0.3 % of control,low nM range,dependent on the dose administered,9 h,produced a marked decrease,,
B1,,,,,,,,,,,,20.6 ± 1.6 µM,153.8±4.4 nmol mg protein-1 h-1
